Measurements: US20060069132A1, “Azolecarboxamide herbicides” (priority 2004, published 2006)
Like-named read-outs stand apart in the source and are kept apart here.

Experiments:
[1] = test system: ducksalad; test: Test C flooded paddy test; type: in vivo, Heteranthera limosa
[2] = test system: lambsquarters; test: Test C pre-/postemergence herbicide test; type: in vivo, Chenopodium album
Summary of the method: (§1)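 Visual injury scores run from 0 (no effect) to 100 (complete control), assessed relative to untreated controls 12 to 14 days after treatment in the greenhouse. Chemicals were formulated in a non-phytotoxic solvent mixture with surfactant and applied to soil after planting or to emerged plants at the 1- to 4-leaf stage.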

[3] = test system: kochia; test: Test C pre-/postemergence herbicide test; type: in vivo, Kochia scoparia
Summary of the method: as §1

[4] = test system: morningglory; test: Test C pre-/postemergence herbicide test; type: in vivo, Ipomoea coccinea; set-up: key to Plant response rating, Morningglory: 0 = no effect, 100 = complete control; conditions: for Plant response rating, Morningglory: visual, 12 to 14 days
Summary of the method: as §1

[5] = test system: velvetleaf; test: Test A pre-/postemergence herbicide test; type: in vivo, Abutilon theophrasti
Summary of the method: (§2)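 Pre: seeded sandy loam, directed soil spray, compound in non-phytotoxic solvent + surfactant. Post: 1–2-leaf plants (2–10 cm), sprayed to runoff. Greenhouse ~10 d; visual injury vs untreated, 0–100 scale.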

[6] = test system: cocklebur; test: Test C pre-/postemergence herbicide test; type: in vivo, Xanthium strumarium; conditions: for Plant response rating (0 = no effect, 100 = complete control), Cocklebur / Plant response rating, Cocklebur: preemergence
Summary of the method: as §1

[7] = test system: smallflower umbrella sedge; test: Test C flooded paddy test; type: in vivo, Cyperus difformis
[8] = test system: common ragweed; test: Test C pre-/postemergence herbicide test; type: in vivo, Ambrosia elatior; set-up: key to Plant response rating, Ragweed: 0 = no effect, 100 = complete control
Summary of the method: as §1

[9] = test system: barnyardgrass; test: Test A pre-/postemergence herbicide test; type: in vivo, Echinochloa crus-galli; conditions: for pest or weed control at 500 g/ha / pest or weed control at 2000 g/ha: Echinochloa crus-galli, 240 h
Summary of the method: as §2

[10] = 62 g ai/ha, scale 0 to 100 (0 no effect, 100 complete control)
[11] = 125 g ai/ha, scale of 0 to 100, 0 is no effect, 100 is complete control
[12] = 250 g ai/ha, scale of 0 to 100, 0 is no effect, 100 is complete control
[13] = 500 g ai/ha, visual rating after 12 to 14 days, scale 0 to 100 (0 no effect, 100 complete control)
[14] = 125 g ai/ha, scale 0 (no effect) to 100 (complete control), visual, 12 to 14 days, preemergence
[15] = 250 g ai/ha, scale 0 to 100 (0 no effect, 100 complete control), visual, 12 to 14 days, preemergence
[16] = Preemergence, 500 g ai/ha, scale 0 to 100, 0 no effect, 100 complete control
[17] = Postemergence, 2000 g ai/ha, 0 to 100 scale, 0 no effect, 100 complete control
[18] = Preemergence, 500 g ai/ha, visual rating, 0 to 100 scale (0 no effect, 100 complete control)

CCN1CCc2c(NC(=O)c3cc(C(C)(C)C)nn3CC)cccc2C1=O [Compound 63]
10: Plant response rating, Ragweed [8, 15]
85: Plant response rating, Ducksalad [1, 13]
90: Plant response rating, Kochia [3, 15] | Kochia plant response rating [3, 16] | Plant response rating, Sedge, Umbrella [7, 13] | Plant response rating, Barnyardgrass [9, 17]
50: Ducksalad plant response rating [1, 11]
40: Plant response rating, Morningglory ([4]; 125 g ai/ha, scale 0 (no effect) to 100 (complete control), preemergence) | Plant response rating, Morningglory ([4]; 250 g ai/ha, scale 0 to 100 (0 no effect, 100 complete control), preemergence) | Morningglory plant response rating [4, 16]
0: Ducksalad plant response rating [1, 10] | Plant response rating (0 = no effect, 100 = complete control), Morningglory ([4]; 62 g ai/ha, preemergence) | Plant response rating (0 = no effect, 100 = complete control), Cocklebur ([6]; 62 g ai/ha) | Plant response rating, Cocklebur ([6]; 125 g ai/ha, scale 0 (no effect) to 100 (complete control), visual, 12 to 14 days) | Plant response rating, Cocklebur ([6]; 250 g ai/ha, scale 0 to 100 (0 no effect, 100 complete control), visual, 12 to 14 days) | Cocklebur plant response rating [6, 16] | Sedge, Umbrella plant response rating [7, 10] | Plant response rating (0 = no effect, 100 = complete control), Ragweed ([8]; 62 g ai/ha, preemergence) | Plant response rating, Ragweed [8, 14]
80: Plant response rating, Kochia [3, 14] | Sedge, Umbrella plant response rating [7, 12]
70: Ducksalad plant response rating [1, 12] | Velvetleaf plant response rating ([5]; Preemergence, 2000 g ai/ha, visual rating, 0 to 100 scale (0 no effect, 100 complete control)) | Sedge, Umbrella plant response rating [7, 11] | Barnyardgrass plant response rating [9, 18]
55: Plant response rating, Velvetleaf [5, 17]
95: Plant response rating, Lambsquarters [2, 14] | Ragweed plant response rating [8, 16]
30: Plant response rating (0 = no effect, 100 = complete control), Lambsquarters ([2]; 62 g ai/ha, preemergence) | Plant response rating (0 = no effect, 100 = complete control), Kochia ([3]; 62 g ai/ha, preemergence)
100: Plant response rating, Lambsquarters [2, 15] | Lambsquarters plant response rating [2, 16] | Barnyardgrass plant response rating ([9]; Preemergence, 2000 g ai/ha, 0 to 100 scale, 0 no effect, 100 complete control)
20: Velvetleaf plant response rating [5, 18]
60: Plant response rating, Barnyardgrass ([9]; Postemergence, 500 g ai/ha, 0 to 100 scale, 0 no effect, 100 complete control)

CCOC(=O)c1cccc(NC(=O)c2cc(C(C)(C)C)nn2CC)c1 [Compound 80, ethyl 3-[[[3-(1,1-dimethylethyl)-1-ethyl-1H-pyrazol-5-yl]carbonyl]-amino]benzoate]
75%: pest or weed control at 2000 g/ha ([5]; Abutilon theophrasti, post-emergence, 240 h, Postemergence, 2000 g ai/ha, 0 to 100 scale, 0 no effect, 100 complete control, read-out: Plant response rating, Velvetleaf)
40%: pest or weed control at 500 g/ha ([1]; Heteranthera limosa, 500 g ai/ha, visual rating after 12 to 14 days, scale 0 to 100 (0 no effect, 100 complete control), read-out: Plant response rating, Ducksalad)
90%: pest or weed control at 62 g/ha ([2]; Chenopodium album, post-emergence, postemergence, 62 g ai/ha, scale 0 to 100, read-out: Plant response rating, Lambsquarters) | pest or weed control at 250 g/ha ([4]; Ipomoea, post-emergence, Postemergence, 250 g ai/ha, scale 0 to 100, 0 no effect, 100 complete control, read-out: Plant response rating, Morningglory) | pest or weed control at 125 g/ha ([4]; Ipomoea, post-emergence, postemergence, 125 g ai/ha, scale 0 to 100, read-out: Plant response rating, Morningglory) | pest or weed control at 62 g/ha ([4]; Ipomoea, post-emergence, postemergence, 62 g ai/ha, scale 0 to 100, read-out: Plant response rating, Morningglory) | pest or weed control at 125 g/ha ([6]; Xanthium strumarium, post-emergence, 312 h, postemergence, 125 g ai/ha, scale 0 to 100, read-out: Plant response rating, Cocklebur) | pest or weed control at 62 g/ha ([6]; Xanthium strumarium, post-emergence, 312 h, postemergence, 62 g ai/ha, scale 0 to 100, read-out: Plant response rating, Cocklebur) | pest or weed control at 500 g/ha ([9]; post-emergence, Postemergence, 500 g ai/ha, 0 to 100 scale, 0 no effect, 100 complete control, read-out: Plant response rating, Barnyardgrass) | pest or weed control at 2000 g/ha ([9]; post-emergence, Postemergence, 2000 g ai/ha, 0 to 100 scale, 0 no effect, 100 complete control, read-out: Plant response rating, Barnyardgrass)
70%: pest or weed control at 31 g/ha ([6]; Xanthium strumarium, post-emergence, 312 h, postemergence, 31 g ai/ha, scale 0 to 100, read-out: Plant response rating, Cocklebur) | pest or weed control at 62 g/ha ([7]; Cyperus difformis, 62 g ai/ha, scale 0 to 100 (0 no effect, 100 complete control), read-out: Sedge, Umbrella plant response rating) | pest or weed control at 125 g/ha ([7]; Cyperus difformis, 125 g ai/ha, scale of 0 to 100, 0 is no effect, 100 is complete control, read-out: Sedge, Umbrella plant response rating) | pest or weed control at 250 g/ha ([7]; Cyperus difformis, 250 g ai/ha, scale of 0 to 100, 0 is no effect, 100 is complete control, read-out: Sedge, Umbrella plant response rating) | pest or weed control at 500 g/ha ([7]; Cyperus difformis, 500 g ai/ha, visual rating after 12 to 14 days, scale 0 to 100 (0 no effect, 100 complete control), read-out: Plant response rating, Sedge, Umbrella) | pest or weed control at 250 g/ha ([8]; Ambrosia artemisiifolia, post-emergence, Postemergence, 250 g ai/ha, scale 0 to 100, 0 no effect, 100 complete control, read-out: Plant response rating, Ragweed) | pest or weed control at 125 g/ha ([8]; Ambrosia artemisiifolia, post-emergence, postemergence, 125 g ai/ha, scale 0 to 100, read-out: Plant response rating, Ragweed) | pest or weed control at 62 g/ha ([8]; Ambrosia artemisiifolia, post-emergence, postemergence, 62 g ai/ha, scale 0 to 100, read-out: Plant response rating, Ragweed)
20%: pest or weed control at 62 g/ha ([1]; Heteranthera limosa, 62 g ai/ha, scale 0 to 100 (0 no effect, 100 complete control), read-out: Ducksalad plant response rating) | pest or weed control at 125 g/ha ([1]; Heteranthera limosa, 125 g ai/ha, scale of 0 to 100, 0 is no effect, 100 is complete control, read-out: Ducksalad plant response rating) | pest or weed control at 250 g/ha ([1]; Heteranthera limosa, 250 g ai/ha, scale of 0 to 100, 0 is no effect, 100 is complete control, read-out: Ducksalad plant response rating)
0: Plant response rating (0 = no effect, 100 = complete control), Lambsquarters ([2]; 62 g ai/ha, preemergence) | Plant response rating (0 = no effect, 100 = complete control), Cocklebur ([6]; 62 g ai/ha) | Plant response rating (0 = no effect, 100 = complete control), Ragweed ([8]; 62 g ai/ha, preemergence)
10: Plant response rating (0 = no effect, 100 = complete control), Kochia ([3]; 62 g ai/ha, preemergence)
20: Plant response rating (0 = no effect, 100 = complete control), Morningglory ([4]; 62 g ai/ha, preemergence)
10%: pest or weed control at 125 g/ha ([2]; Chenopodium album, pre-emergence, 125 g ai/ha, scale 0 (no effect) to 100 (complete control), visual, 12 to 14 days, read-out: Plant response rating, Lambsquarters) | pest or weed control at 31 g/ha ([3]; Bassia scoparia, pre-emergence, 31 g ai/ha, preemergence, scale 0 to 100, read-out: Plant response rating, Kochia) | pest or weed control at 125 g/ha ([3]; Bassia scoparia, pre-emergence, 125 g ai/ha, scale 0 (no effect) to 100 (complete control), visual, 12 to 14 days, read-out: Plant response rating, Kochia) | pest or weed control at 500 g/ha ([5]; Abutilon theophrasti, pre-emergence, 240 h, Preemergence, 500 g ai/ha, visual rating, 0 to 100 scale (0 no effect, 100 complete control), read-out: Velvetleaf plant response rating) | pest or weed control at 2000 g/ha ([5]; Abutilon theophrasti, pre-emergence, 240 h, Preemergence, 2000 g ai/ha, visual rating, 0 to 100 scale (0 no effect, 100 complete control), read-out: Velvetleaf plant response rating) | pest or weed control at 125 g/ha ([6]; Xanthium strumarium, pre-emergence, 312 h, 125 g ai/ha, scale 0 (no effect) to 100 (complete control), visual, 12 to 14 days, read-out: Plant response rating, Cocklebur) | pest or weed control at 250 g/ha ([6]; Xanthium strumarium, pre-emergence, 312 h, 250 g ai/ha, scale 0 to 100 (0 no effect, 100 complete control), visual, 12 to 14 days, read-out: Plant response rating, Cocklebur) | pest or weed control at 500 g/ha ([9]; pre-emergence, Preemergence, 500 g ai/ha, visual rating, 0 to 100 scale (0 no effect, 100 complete control), read-out: Barnyardgrass plant response rating)
0%: pest or weed control at 31 g/ha ([2]; Chenopodium album, pre-emergence, 31 g ai/ha, preemergence, scale 0 to 100, read-out: Plant response rating, Lambsquarters) | pest or weed control at 31 g/ha ([4]; Ipomoea, pre-emergence, 31 g ai/ha, preemergence, scale 0 to 100, read-out: Plant response rating, Morningglory) | pest or weed control at 31 g/ha ([8]; Ambrosia artemisiifolia, pre-emergence, 31 g ai/ha, preemergence, scale 0 to 100, read-out: Plant response rating, Ragweed) | pest or weed control at 125 g/ha ([8]; Ambrosia artemisiifolia, pre-emergence, 125 g ai/ha, scale 0 (no effect) to 100 (complete control), visual, 12 to 14 days, read-out: Plant response rating, Ragweed)
35%: pest or weed control at 2000 g/ha ([9]; pre-emergence, Preemergence, 2000 g ai/ha, 0 to 100 scale, 0 no effect, 100 complete control, read-out: Barnyardgrass plant response rating)
100%: pest or weed control at 250 g/ha ([2]; Chenopodium album, post-emergence, Postemergence, 250 g ai/ha, scale 0 to 100, 0 no effect, 100 complete control, read-out: Plant response rating, Lambsquarters) | pest or weed control at 125 g/ha ([2]; Chenopodium album, post-emergence, postemergence, 125 g ai/ha, scale 0 to 100, read-out: Plant response rating, Lambsquarters) | pest or weed control at 250 g/ha ([3]; Bassia scoparia, post-emergence, Postemergence, 250 g ai/ha, scale 0 to 100, 0 no effect, 100 complete control, read-out: Plant response rating, Kochia) | pest or weed control at 125 g/ha ([3]; Bassia scoparia, post-emergence, postemergence, 125 g ai/ha, scale 0 to 100, read-out: Plant response rating, Kochia) | pest or weed control at 62 g/ha ([3]; Bassia scoparia, post-emergence, postemergence, 62 g ai/ha, scale 0 to 100, read-out: Plant response rating, Kochia) | pest or weed control at 250 g/ha ([6]; Xanthium strumarium, post-emergence, 312 h, Postemergence, 250 g ai/ha, scale 0 to 100, 0 no effect, 100 complete control, read-out: Plant response rating, Cocklebur)
